Source: ChEMBL document CHEMBL1146455, “New geranyl stilbenes from Dalea purpurea with in vitro opioid receptor affinity” (J Nat Prod, 2004)
pKi: −log10 of the molar value.

Assay: Displacement of [3H]naloxone from opioid receptor in Sprague-Dawley rat striatal membrane by scintillation spectrophotometry
Set-up: species or system Striatum

pKi | Structure (SMILES)
6.54 | CC(C)=CCC/C(C)=C/Cc1c(O)cc(O)cc1/C=C/c1ccc(O)c(O)c1CC=C(C)C [PAWHUSKIN A]
4.94 | CC(C)=CCCC1(C)C=Cc2c(O)cc(/C=C/c3ccc(O)c(O)c3)cc2O1 (centres undefined) [PAWHUSKIN B]
5.38 | CC(C)=CCC/C(C)=C/Cc1c(O)cc(/C=C/c2ccc(O)c(O)c2)cc1O [PAWHUSKIN C]
< 4.00 | CC(C)=CCc1cc(O)c(O)c(CC=C(C)C)c1[C@H]1Oc2c(CC=C(C)C)c(O)cc(O)c2C(=O)[C@@H]1O [PETALOSTEMUMOL]
